BigSolDB 2.1

For `O=C(O)c1cc(C(=O)O)cc(C(=O)O)c1`, which solubility (mole fraction) (in ethanol, 302.89 K) is on record?
The solubility (mole fraction) was 0.0207.

What about the solubility (mole fraction) (in ethanol, 309.85 K) of the same molecule?
Its solubility (mole fraction) is 0.0228.

And the solubility (mole fraction) (in ethanol, 312.83 K)?
The solubility (mole fraction) was 0.0237.

What about the solubility (mole fraction) (in ethanol, 319.06 K) of the same molecule?
The solubility (mole fraction) was 0.0257.

What about the solubility (mole fraction) (in ethanol, 324.5 K) of the same molecule?
The solubility (mole fraction) was 0.0277.

What about the solubility (mole fraction) (in ethylene glycol, 305.44 K) of the same molecule?
Its solubility (mole fraction) is 0.00826.

And the solubility (mole fraction) (in ethylene glycol, 310.56 K)?
Its solubility (mole fraction) is 0.00951.

What about the solubility (mole fraction) (in ethylene glycol, 315.85 K) of the same molecule?
The solubility (mole fraction) was 0.0112.

What about the solubility (mole fraction) (in ethylene glycol, 321.33 K) of the same molecule?
The solubility (mole fraction) was 0.0131.

What about the solubility (mole fraction) (in ethylene glycol, 326.03 K) of the same molecule?
The solubility (mole fraction) was 0.0147.

What about the solubility (mole fraction) (in ethylene glycol, 331.84 K) of the same molecule?
The solubility (mole fraction) was 0.0178.

And the solubility (mole fraction) (in isobutanol, 306 K)?
Its solubility (mole fraction) is 0.0078.

And the solubility (mole fraction) (in isobutanol, 310.65 K)?
The solubility (mole fraction) was 0.0086.

And the solubility (mole fraction) (in isobutanol, 314.94 K)?
Its solubility (mole fraction) is 0.00926.

What about the solubility (mole fraction) (in isobutanol, 319.87 K) of the same molecule?
Its solubility (mole fraction) is 0.0104.

And the solubility (mole fraction) (in isobutanol, 324.75 K)?
The solubility (mole fraction) was 0.0117.

And the solubility (mole fraction) (in isobutanol, 330.58 K)?
Its solubility (mole fraction) is 0.0132.

What about the solubility (mole fraction) (in isopropanol, 305.77 K) of the same molecule?
Its solubility (mole fraction) is 0.00706.

What about the solubility (mole fraction) (in isopropanol, 311.02 K) of the same molecule?
The solubility (mole fraction) was 0.00798.

What about the solubility (mole fraction) (in isopropanol, 315.67 K) of the same molecule?
The solubility (mole fraction) was 0.00869.

And the solubility (mole fraction) (in isopropanol, 320.61 K)?
Its solubility (mole fraction) is 0.00949.

What about the solubility (mole fraction) (in isopropanol, 324.58 K) of the same molecule?
Its solubility (mole fraction) is 0.0104.

And the solubility (mole fraction) (in isopropanol, 330.39 K)?
Its solubility (mole fraction) is 0.0117.

And the solubility (mole fraction) (in methanol, 298.21 K)?
The solubility (mole fraction) was 0.012.

What about the solubility (mole fraction) (in methanol, 304.67 K) of the same molecule?
The solubility (mole fraction) was 0.0138.

And the solubility (mole fraction) (in methanol, 308.78 K)?
The solubility (mole fraction) was 0.0151.

And the solubility (mole fraction) (in methanol, 313.97 K)?
Its solubility (mole fraction) is 0.0169.

What about the solubility (mole fraction) (in water, 301.05 K) of the same molecule?
Its solubility (mole fraction) is 0.00015.

What about the solubility (mole fraction) (in water, 305.47 K) of the same molecule?
Its solubility (mole fraction) is 0.00019.

What about the solubility (mole fraction) (in water, 309.8 K) of the same molecule?
Its solubility (mole fraction) is 0.00025.

What about the solubility (mole fraction) (in water, 315.22 K) of the same molecule?
The solubility (mole fraction) was 0.00033.

What about the solubility (mole fraction) (in water, 320.56 K) of the same molecule?
Its solubility (mole fraction) is 0.00044.

And the solubility (mole fraction) (in water, 325.11 K)?
The solubility (mole fraction) was 0.00055.

What about the solubility (mole fraction) (in water, 329.42 K) of the same molecule?
The solubility (mole fraction) was 0.00069.
